The results in this text go back to ChEMBL document CHEMBL3714734, “Modulators of G protein-coupled receptor 88” (2013).

Experiment [1] has as its target T1, G protein-coupled receptor 88 (Homo sapiens, UniProt Q9GZN0). The experiment in a line: Modulator activity at GPR88 (unknown origin) incubated for 30 mins by cell based cAMP HTRF assay. Format: functional. Background: TR-FRET usually uses a lanthanide donor and a delayed reading to cut background.
Experiment [2] addresses T1, G protein-coupled receptor 88. The experiment in a line: Modulator activity at GPR88 (unknown origin) expressed in cell membranes incubated for 1 hr by liquid scintillation counting based [35S]GTPgammaS binding assay. Format: functional.

T1 sequence (Q9GZN0 whole entry): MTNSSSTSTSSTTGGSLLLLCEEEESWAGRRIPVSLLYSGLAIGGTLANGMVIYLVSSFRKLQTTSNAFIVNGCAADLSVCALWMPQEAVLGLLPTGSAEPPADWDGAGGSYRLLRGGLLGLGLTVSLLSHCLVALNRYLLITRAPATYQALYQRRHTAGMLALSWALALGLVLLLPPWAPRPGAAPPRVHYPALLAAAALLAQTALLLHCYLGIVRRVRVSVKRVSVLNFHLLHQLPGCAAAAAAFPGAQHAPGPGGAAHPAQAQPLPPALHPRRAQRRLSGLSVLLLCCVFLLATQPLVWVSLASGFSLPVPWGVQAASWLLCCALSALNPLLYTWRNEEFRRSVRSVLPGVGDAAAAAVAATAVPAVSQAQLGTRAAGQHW

Broadly, the EC50 is the concentration needed to bring the measured effect to its halfway point. Read a low EC50 as an effect from little substance. For `Cc1ccc(-c2ccc([C@H](CO)NC(=O)[C@H]3C[C@@H]3c3cccs3)cc2)cc1`, the EC50 in experiment [1] is no more than 130 nM.
Still for that read-out and setting: under `CC[C@H](C)COc1ccc([C@H](CN2CCN(C)CC2)NC(=O)[C@H]2C[C@@H]2c2cccs2)cc1` stands no more than 130 nM.
The compound `CC[C@H](C)COc1ccc([C@H](CN)NC(=O)[C@H]2C[C@@H]2c2cccs2)cc1` registered an EC50 in experiment [2] of no more than 130 nM.
In the case of `CCC(CC)COc1ccc([C@H](CO)NC(=O)[C@H]2C[C@@H]2c2cccs2)c(C)c1`, in experiment [1], the EC50 was no more than 130 nM.
On the same count and under the same terms, under `CC[C@H](C)COc1ccc([C@H](CO)NC(=O)[C@H]2C[C@@H]2c2cccs2)c(C)c1` stands no more than 130 nM; under `CCC(CC)COc1ccc([C@H](CO)NC(=O)[C@H]2C[C@@H]2c2cccs2)cc1`, no more than 130 nM.
In experiment [2], `CCCC(C)COc1ccc([C@H](CN2CCN(C)CC2)NC(=O)[C@H]2C[C@@H]2c2cccs2)cc1` (stereo partly drawn) showed an EC50 of no more than 130 nM.
Still for that read-out and setting: under `CC[C@H](C)COc1ccc([C@H](CN)NC(=O)[C@H]2C[C@@H]2c2cccs2)c(C)c1` stands no more than 130 nM; under `CCc1ccc(-c2ccc([C@H](CO)NC(=O)[C@H]3C[C@@H]3c3cccs3)cc2)cc1`, no more than 130 nM.
Same read-out and setting: under `CCc1ccc(-c2ccc([C@H](CO)NC(=O)[C@H]3C[C@@H]3c3cccs3)c(OC)c2)cc1` stands no more than 130 nM.
For the compound `CCCC(C)COc1ccc([C@H](CO)NC(=O)[C@H]2C[C@@H]2c2cccs2)c(C)c1` (stereo partly drawn), in experiment [1], the EC50 was no more than 130 nM.
Still for that read-out and setting: under `CCCC#Cc1ccc([C@H](CO)NC(=O)[C@H]2C[C@@H]2c2cccs2)c(OC)c1` stands no more than 130 nM.
`CC[C@H](NC(=O)[C@H]1C[C@@H]1c1ccccc1)c1ccc(-c2ccc(OC)cc2)cc1` came in with an EC50 in experiment [2] of no more than 130 nM.
